Molecular target: P. falciparum apicoplast DNA polymerase (Pf-apPOL) (Plasmodium falciparum, UniProt Q8ILY1)
Experiment: Fluorescence-based high-throughput DNA polymerase assay (molecular beacon), primary screen and dose-response;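 as to % inhibition ApPOL 90': test concentration in µM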;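 as to % inhibition Apol 40': compound concentration given in µM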;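 as to % inhibition apPOL 180': test concentration in µM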
Type: biochemical
Conditions: for DNA Pol: 90 min, 10 µM
Procedure, shortened: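 Single-point screening used 10 µM compound with 20 nM polymerase, 20 nM hairpin substrate and 6 µM dNTPs for 90 min at 25 °C. Confirmatory titrations (2.5–80 µM) followed fluorescence at three times, and IC50 was derived from a fit including a cooperativity term n.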

[1] = 'DNA Pol' of the 186 hits list (primary screen value)
[2] = "DNA Pol" of the 186 hits list (screen value)

Chain of P. falciparum apicoplast DNA polymerase (Pf-apPOL) (Q8ILY1 entry or part of it): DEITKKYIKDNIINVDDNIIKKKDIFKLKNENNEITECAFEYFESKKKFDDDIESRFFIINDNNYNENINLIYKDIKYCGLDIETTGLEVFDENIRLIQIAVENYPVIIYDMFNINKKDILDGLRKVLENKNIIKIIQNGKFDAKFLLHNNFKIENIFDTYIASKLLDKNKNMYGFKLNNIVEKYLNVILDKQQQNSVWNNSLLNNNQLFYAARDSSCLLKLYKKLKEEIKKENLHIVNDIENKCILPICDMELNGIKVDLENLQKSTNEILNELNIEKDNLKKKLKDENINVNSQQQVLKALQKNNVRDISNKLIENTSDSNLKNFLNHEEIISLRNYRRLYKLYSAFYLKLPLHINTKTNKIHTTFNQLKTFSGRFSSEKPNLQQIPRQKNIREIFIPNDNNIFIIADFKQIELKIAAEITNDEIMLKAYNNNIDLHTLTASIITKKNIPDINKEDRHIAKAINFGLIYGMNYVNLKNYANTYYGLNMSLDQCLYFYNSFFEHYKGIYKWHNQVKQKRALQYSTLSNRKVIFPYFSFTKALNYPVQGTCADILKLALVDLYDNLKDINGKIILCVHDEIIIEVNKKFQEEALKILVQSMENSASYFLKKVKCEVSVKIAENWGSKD

O=C1CCCC2=C1C(c1ccccn1)C1=C(CCCC1=O)O2 [KU0194228]
DNA Pol [1]: 11 | DNA Pol (DNA Pol (primary screen value)): 11 | % inhibition Apo pol 10' (DRC-1, concentration 2.5): 1.279% | % inhibition Apo pol 10' (DRC-1, concentration 5): 9.9789% | % inhibition Apo pol 10' (DRC-1, concentration 10): 33.5344% | % inhibition Apo pol 10' (DRC-1, concentration 20): 43.7332% | % inhibition Apo pol 10' (DRC-1, concentration 40): 62.1087% | % inhibition Apo pol 10' (DRC-1, concentration 80): 77.9707% | % inhibition Apol 90' (DRC-1, concentration 2.5): 2.669% | % inhibition Apol 90' (DRC-1, concentration 5): 9.934% | % inhibition Apol 90' (DRC-1, concentration 10): 28.061% | % inhibition Apol 90' (DRC-1, concentration 20): 43.923% | % inhibition Apol 90' (DRC-1, concentration 40): 56.4118% | % inhibition Apol 90' (DRC-1, concentration 80): 74.3626% | % inhibition apPOL 180' (DRC-1, concentration 2.5): 5.61% | % inhibition apPOL 180' (DRC-1, concentration 5): 16.0813% | % inhibition apPOL 180' (DRC-1, concentration 10): 29.7893% | % inhibition apPOL 180' (DRC-1, concentration 20): 44.3828% | % inhibition apPOL 180' (DRC-1, concentration 40): 53.3605% | % inhibition apPOL 180' (DRC-1, concentration 80): 68.1872% | % inhibition Apo pol 5' (DRC-2, concentration 2.5): 5% | % inhibition Apo pol 5' (DRC-2, concentration 5): 4% | % inhibition Apo pol 5' (DRC-2, concentration 10): 22% | % inhibition Apo pol 5' (DRC-2, concentration 20): 33% | % inhibition Apo pol 5' (DRC-2, concentration 40): 44% | % inhibition Apo pol 5' (DRC-2, concentration 80): 43% | % inhibition Apol 40' (DRC-2, concentration 2.5): 2.6% | % inhibition Apol 40' (DRC-2, concentration 5): -9% | % inhibition Apol 40' (DRC-2, concentration 10): 15% | % inhibition Apol 40' (DRC-2, concentration 20): 33% | % inhibition Apol 40' (DRC-2, concentration 40): 46% | % inhibition Apol 40' (DRC-2, concentration 80): 52% | % inhibition ApPOL 90' (DRC-2, concentration 2.5): 2% | % inhibition ApPOL 90' (DRC-2, concentration 5): -14% | % inhibition ApPOL 90' (DRC-2, concentration 10): 18% | % inhibition ApPOL 90' (DRC-2, concentration 20): 37% | % inhibition ApPOL 90' (DRC-2, concentration 40): 49% | % inhibition ApPOL 90' (DRC-2, concentration 80): 58% | % inhibition apPOL 180' (DRC-2, concentration 2.5): -0.328% | % inhibition apPOL 180' (DRC-2, concentration 5): -74% | % inhibition apPOL 180' (DRC-2, concentration 10): 22% | % inhibition apPOL 180' (DRC-2, concentration 20): 41% | % inhibition apPOL 180' (DRC-2, concentration 40): 48% | % inhibition apPOL 180' (DRC-2, concentration 80): 60%

O=C1C(=Cc2ccccc2O)Oc2ccc(O)cc21 [KU0196475]
DNA Pol [2]: 17 | % inhibition Apo pol 10' (DRC-1, concentration 2.5): -5.1779% | % inhibition Apo pol 10' (DRC-1, concentration 5): -7.445% | % inhibition Apo pol 10' (DRC-1, concentration 10): 3.3875% | % inhibition Apo pol 10' (DRC-1, concentration 20): 10.6699% | % inhibition Apo pol 10' (DRC-1, concentration 40): 41.0111% | % inhibition Apo pol 10' (DRC-1, concentration 80): 68.8562% | % inhibition Apol 90' (DRC-1, concentration 2.5): -1.782% | % inhibition Apol 90' (DRC-1, concentration 5): -1.611% | % inhibition Apol 90' (DRC-1, concentration 10): 10.1306% | % inhibition Apol 90' (DRC-1, concentration 20): 24.1034% | % inhibition Apol 90' (DRC-1, concentration 40): 57.9717% | % inhibition Apol 90' (DRC-1, concentration 80): 77.3146% | % inhibition apPOL 180' (DRC-1, concentration 2.5): 3.033% | % inhibition apPOL 180' (DRC-1, concentration 5): 3.658% | % inhibition apPOL 180' (DRC-1, concentration 10): 21.7009% | % inhibition apPOL 180' (DRC-1, concentration 20): 41.2058% | % inhibition apPOL 180' (DRC-1, concentration 40): 72.3539% | % inhibition apPOL 180' (DRC-1, concentration 80): 79.2388% | % inhibition Apo pol 5' (DRC-2, concentration 2.5): -0.68% | % inhibition Apo pol 5' (DRC-2, concentration 5): 0.901% | % inhibition Apo pol 5' (DRC-2, concentration 10): 18% | % inhibition Apo pol 5' (DRC-2, concentration 20): 28% | % inhibition Apo pol 5' (DRC-2, concentration 40): 40% | % inhibition Apo pol 5' (DRC-2, concentration 80): 45% | % inhibition Apol 40' (DRC-2, concentration 2.5): 0.208% | % inhibition Apol 40' (DRC-2, concentration 5): -7.41% | % inhibition Apol 40' (DRC-2, concentration 10): 18% | % inhibition Apol 40' (DRC-2, concentration 20): 33% | % inhibition Apol 40' (DRC-2, concentration 40): 54% | % inhibition Apol 40' (DRC-2, concentration 80): 65% | % inhibition ApPOL 90' (DRC-2, concentration 2.5): 0% | % inhibition ApPOL 90' (DRC-2, concentration 5): -14% | % inhibition ApPOL 90' (DRC-2, concentration 10): 15% | % inhibition ApPOL 90' (DRC-2, concentration 20): 29% | % inhibition ApPOL 90' (DRC-2, concentration 40): 53% | % inhibition ApPOL 90' (DRC-2, concentration 80): 66% | % inhibition apPOL 180' (DRC-2, concentration 2.5): -3.48% | % inhibition apPOL 180' (DRC-2, concentration 5): -88% | % inhibition apPOL 180' (DRC-2, concentration 10): 8% | % inhibition apPOL 180' (DRC-2, concentration 20): 17% | % inhibition apPOL 180' (DRC-2, concentration 40): 45% | % inhibition apPOL 180' (DRC-2, concentration 80): 63% | DNA Pol (primary screen value, DNA Pol): 17

Cc1ccc2c(C(=O)NCCc3cccnc3)cc(NC(=O)C(C)C)cc2n1 [KU0206096]
DNA Pol [2]: 22 | % inhibition Apo pol 10' (DRC-1, concentration 2.5): 2.289% | % inhibition Apo pol 10' (DRC-1, concentration 5): 10.1779% | % inhibition Apo pol 10' (DRC-1, concentration 10): 28.6368% | % inhibition Apo pol 10' (DRC-1, concentration 20): 37.57% | % inhibition Apo pol 10' (DRC-1, concentration 40): 75.2311% | % inhibition Apo pol 10' (DRC-1, concentration 80): 89.4827% | % inhibition Apol 90' (DRC-1, concentration 2.5): -0.2653% | % inhibition Apol 90' (DRC-1, concentration 5): 3.264% | % inhibition Apol 90' (DRC-1, concentration 10): 15.2748% | % inhibition Apol 90' (DRC-1, concentration 20): 20.9182% | % inhibition Apol 90' (DRC-1, concentration 40): 58.3993% | % inhibition Apol 90' (DRC-1, concentration 80): 83.2702% | % inhibition apPOL 180' (DRC-1, concentration 2.5): -4.525% | % inhibition apPOL 180' (DRC-1, concentration 5): -3.235% | % inhibition apPOL 180' (DRC-1, concentration 10): 5.405% | % inhibition apPOL 180' (DRC-1, concentration 20): 7.166% | % inhibition apPOL 180' (DRC-1, concentration 40): 41.4073% | % inhibition apPOL 180' (DRC-1, concentration 80): 75.1879% | % inhibition Apo pol 5' (DRC-2, concentration 2.5): -0.312% | % inhibition Apo pol 5' (DRC-2, concentration 5): 5.56% | % inhibition Apo pol 5' (DRC-2, concentration 10): 24% | % inhibition Apo pol 5' (DRC-2, concentration 20): 40% | % inhibition Apo pol 5' (DRC-2, concentration 40): 49% | % inhibition Apo pol 5' (DRC-2, concentration 80): 49% | % inhibition Apol 40' (DRC-2, concentration 2.5): 1.82% | % inhibition Apol 40' (DRC-2, concentration 5): 5.58% | % inhibition Apol 40' (DRC-2, concentration 10): 24% | % inhibition Apol 40' (DRC-2, concentration 20): 42% | % inhibition Apol 40' (DRC-2, concentration 40): 62% | % inhibition Apol 40' (DRC-2, concentration 80): 70% | % inhibition ApPOL 90' (DRC-2, concentration 2.5): 1.09% | % inhibition ApPOL 90' (DRC-2, concentration 5): 5.45% | % inhibition ApPOL 90' (DRC-2, concentration 10): 21% | % inhibition ApPOL 90' (DRC-2, concentration 20): 39% | % inhibition ApPOL 90' (DRC-2, concentration 40): 63% | % inhibition ApPOL 90' (DRC-2, concentration 80): 75% | % inhibition apPOL 180' (DRC-2, concentration 2.5): -1.29% | % inhibition apPOL 180' (DRC-2, concentration 5): 2.66% | % inhibition apPOL 180' (DRC-2, concentration 10): 13% | % inhibition apPOL 180' (DRC-2, concentration 20): 28% | % inhibition apPOL 180' (DRC-2, concentration 40): 57% | % inhibition apPOL 180' (DRC-2, concentration 80): 78% | DNA Pol (primary screen value, DNA Pol): 22

CCC(C)NC(=O)c1cc(NC(C)=O)cc2nc(C)ccc12 (centres unmarked) [KU0206314]
DNA Pol [1]: 24 | DNA Pol (DNA Pol (primary screen value)): 24 | % inhibition Apo pol 10' (DRC-1, concentration 2.5): 2.024% | % inhibition Apo pol 10' (DRC-1, concentration 5): 11.6857% | % inhibition Apo pol 10' (DRC-1, concentration 10): 27.7087% | % inhibition Apo pol 10' (DRC-1, concentration 20): 37.1675% | % inhibition Apo pol 10' (DRC-1, concentration 40): 74.587% | % inhibition Apo pol 10' (DRC-1, concentration 80): 89.0945% | % inhibition Apol 90' (DRC-1, concentration 2.5): -1.658% | % inhibition Apol 90' (DRC-1, concentration 5): 3.672% | % inhibition Apol 90' (DRC-1, concentration 10): 15.6061% | % inhibition Apol 90' (DRC-1, concentration 20): 20.1807% | % inhibition Apol 90' (DRC-1, concentration 40): 54.0066% | % inhibition Apol 90' (DRC-1, concentration 80): 77.404% | % inhibition apPOL 180' (DRC-1, concentration 2.5): -4.723% | % inhibition apPOL 180' (DRC-1, concentration 5): -1.48% | % inhibition apPOL 180' (DRC-1, concentration 10): 7.7142% | % inhibition apPOL 180' (DRC-1, concentration 20): 9.245% | % inhibition apPOL 180' (DRC-1, concentration 40): 37.6309% | % inhibition apPOL 180' (DRC-1, concentration 80): 66.384% | % inhibition Apo pol 5' (DRC-2, concentration 2.5): 10% | % inhibition Apo pol 5' (DRC-2, concentration 5): 11% | % inhibition Apo pol 5' (DRC-2, concentration 10): 29% | % inhibition Apo pol 5' (DRC-2, concentration 20): 42% | % inhibition Apo pol 5' (DRC-2, concentration 40): 49% | % inhibition Apo pol 5' (DRC-2, concentration 80): 53% | % inhibition Apol 40' (DRC-2, concentration 2.5): 7% | % inhibition Apol 40' (DRC-2, concentration 5): 7% | % inhibition Apol 40' (DRC-2, concentration 10): 25% | % inhibition Apol 40' (DRC-2, concentration 20): 40% | % inhibition Apol 40' (DRC-2, concentration 40): 58% | % inhibition Apol 40' (DRC-2, concentration 80): 70% | % inhibition ApPOL 90' (DRC-2, concentration 2.5): 5.39% | % inhibition ApPOL 90' (DRC-2, concentration 5): 6% | % inhibition ApPOL 90' (DRC-2, concentration 10): 21% | % inhibition ApPOL 90' (DRC-2, concentration 20): 35% | % inhibition ApPOL 90' (DRC-2, concentration 40): 57% | % inhibition ApPOL 90' (DRC-2, concentration 80): 73% | % inhibition apPOL 180' (DRC-2, concentration 2.5): 1.48% | % inhibition apPOL 180' (DRC-2, concentration 5): 0.928% | % inhibition apPOL 180' (DRC-2, concentration 10): 12% | % inhibition apPOL 180' (DRC-2, concentration 20): 23% | % inhibition apPOL 180' (DRC-2, concentration 40): 48% | % inhibition apPOL 180' (DRC-2, concentration 80): 72%
